The values that follow come from patent publication US12643867B2, “Compositions and uses thereof” (University of Virginia Patent Foundation, priority 2017, dated 2026).

Like-named read-outs stand apart in the source and are kept apart here.

Assay [1] has as its target T1, PLK1 (Serine/threonine-protein kinase PLK1) (Homo sapiens, UniProt P53350).
T1 construct: Native kinases; endogenous in cells; host or cells: HEK293T soluble proteome
The experiment in a line: SILAC LC-MS ATP acyl phosphate probe competition, native kinases in HEK293T. The assay is classed as binding. As to conditions: site Lys1; ATP 1 mM; Ketanserin, Ritanserin 100 μM; RF001 1 mM. Here is the method: Proteomes were diluted to 2 mg/ml in kinase buffer. The light and heavy proteomes (0.5 mg, 250 μL total reaction volume) were pre-treated with vehicle or compound, respectively (5 μL, DMSO (light) or 50× stock in DMSO (heavy)), mixed gently, and incubated at 25° C. for 30 min. […] After incubation, matched light and heavy proteomes were transferred and mixed in a 1:1 ratio in a two-dram vial containing 4:1:3 MeOH/CHCl3/H2O (2 mL MeOH, 500 AL CHCl3, 1.5 mL H2O) for extraction of proteins to remove excess probe, quickly vortexed, and centrifuged at 1,400×g for 3 min to pellet protein. Organic and aqueous layers were removed using a Pasteur pipette, and the protein pellet was transferred to a screw-top tube in 600 μL MeOH. A second extraction was performed by adding CHCl3 (150 μL) and H2O (600 μL) to each sample, vortexed, and centrifuged at 1,400×g for 3 min to pellet protein. Organic and aqueous layers were removed by pipetting. MeOH added to pellet (600 μL) and pellets were re-suspended by sonication (3×1 sec pulse, 20% amplitude) for a final extraction. Samples were then centrifuged at 17,000×g for 5 min to pellet protein and MeOH was removed by pipetting. […] To desalt the samples, each was transferred to a two-dram glass vial, and to the vial 4:1:2 MeOH/CHCl3/H2O (2 mL MeOH, 500 AL CHCl3, 1 mL H2O) was added. The vials were vortexed quickly, spun at 1.400×g for 3 min to pellet protein, and aqueous and organic layers were removed using a Pasteur pipette. The resulting protein pellet was transferred to a screw-top tube in 600 μL MeOH, and then CHCl3 (150 μL) and HO (600 μL) were added to extract protein a second time. The samples were vortexed quickly, centrifuged at 1,400×g to pellet protein, and the aqueous and organic layers were removed by pipetting. Resulting protein pellet was suspended in MeOH (600 μL) via sonication (3×1 sec pulse, 20% amplitude), centrifuged at 17,000×g for 5 min to pellet protein, and MeOH removed by pipetting. […]

The target in assay [2] is T2, recombinant DGKα (Rattus norvegicus, UniProt P51556).
T2 construct: expressed in transfected cells; host or cells: HEK293T (SILAC HEK293T for LC-MS)
T2 sequence (P51556 whole entry): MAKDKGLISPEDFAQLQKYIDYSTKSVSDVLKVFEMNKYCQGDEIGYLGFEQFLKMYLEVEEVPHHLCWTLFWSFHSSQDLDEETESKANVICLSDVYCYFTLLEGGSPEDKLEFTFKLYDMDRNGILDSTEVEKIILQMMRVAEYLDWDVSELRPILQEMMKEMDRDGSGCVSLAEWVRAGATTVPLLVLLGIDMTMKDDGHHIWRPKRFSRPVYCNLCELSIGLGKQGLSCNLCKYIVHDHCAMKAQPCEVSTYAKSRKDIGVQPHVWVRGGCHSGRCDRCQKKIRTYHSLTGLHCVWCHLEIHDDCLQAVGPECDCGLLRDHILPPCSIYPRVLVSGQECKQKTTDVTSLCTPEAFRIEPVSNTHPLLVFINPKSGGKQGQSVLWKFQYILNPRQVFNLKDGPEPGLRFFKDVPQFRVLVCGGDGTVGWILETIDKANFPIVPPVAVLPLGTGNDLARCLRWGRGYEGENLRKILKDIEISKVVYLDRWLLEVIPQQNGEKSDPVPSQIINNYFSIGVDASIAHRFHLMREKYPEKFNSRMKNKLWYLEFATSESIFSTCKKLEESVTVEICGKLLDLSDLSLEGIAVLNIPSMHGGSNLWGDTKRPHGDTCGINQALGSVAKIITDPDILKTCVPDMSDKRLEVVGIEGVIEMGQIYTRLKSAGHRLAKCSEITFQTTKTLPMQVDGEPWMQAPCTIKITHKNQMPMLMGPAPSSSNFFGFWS
Description: ADP-glo DAG phosphorylation substrate assay. The assay is classed as biochemical. The protocol: The ADP-Glo DAG phosphorylation substrate assay was adapted from Sato et al (Sato et al., 2013). Transfected HEK cells expressing recombinant FLAG-DGKA were harvested in DPBS and centrifuged at 1400×g for 3 min. Supernatant was removed and 1 mL Lysis Buffer (50 mM HEPES (pH 7.2), 150 mM NaCl, 5 mM MgCL2, 1 mM DTT, 1 mM phenylmethylsulfonyl […], Phosphatase Inhibitor Cocktail 2 (Sigma-Aldrich), and EDTA-Free Protease Inhibitor Mini Tablets (Pierce)) was added and cells re-suspended. Solutions were sonicated (3×1 sec pulse, 20% amplitude) and then centrifuged at 400×g for 5 min. Supernatant was separated and protein concentrations were measured using the Bio-Rad DC protein assay and diluted in Lysis Buffer as appropriate. Samples were stored at −80° C. until use.
Micelles were prepared from lipid stocks as follows: Reaction Buffer (50 mM MOPS (pH 7.4). 1 mM DTT. 100 mM NaCl. 20 mM NaF, and |μM CaCl2)) was prepared in ddH2O. […] 1,2-dioleoyl-sn-glycerol (DG) and 1.2-dioleoyl-sn-glycero-3-phospho-L-serine (DOPS) in chloroform were mixed and then dried under nitrogen. Triton Buffer was added to the dried lipids to a final concentration of 10 mM DG and 8 mM DOPS. This solution was incubated at room temperature for 5 min with gentle shaking, followed by sonication (3×1 sec pulse, 20% amplitude). The micelles were then diluted 4-fold in reaction buffer to yield the final micelle buffer. […] of lysate was aliquoted into each well of a 96 well plate, followed by micelle buffer to a final volume of 20 μL. 19 μL of this mix was added to 1 μL of DMSO or inhibitor solution and incubated at 30° C. for 30 min. After incubation, 5 μL of reaction initiator was added to each well and mixed thoroughly, followed by aliquoting 5 μL of each reaction mixture to a 96-well half area black polystyrene plate and incubated at 30° C. for 30 min. At this point the procedure for the ADP-GloTM assay (Promega) was performed. 5 μL of ‘ADP-Glo Reagent’ was added to each well, mixed thoroughly, and allowed to incubate at 25° C. for 40 min. Then 10 μL of the ‘Kinase Detection Reagent’ was added to each well, mixed thoroughly, and allowed to incubate at 25° C. for 40 min. Luminescence was measured with no filter and an integration time of 1 sec per well on a BMG Labtech CLARIOstar plate reader.
The percentage of enzyme activity remaining was determined by comparing integrated band intensities or luminescence of inhibitor—with DMSO-treated samples for gel-based chemical proteomic or ADP-glo assays, respectively. For both chemical proteomic and ADP-glo methods, nonlinear regression analysis was used to determine the IC50 values from a dose-response curve generated using GraphPad Prism. Data are shown as mean±s.e.m. Determination of significance was performed by one-way ANOVA. All statistical analyses were performed using GraphPad Prism.

The mark [3] stands for this setting: DGKα-HEK293T proteome, read-out: IC50, DGKα inhibition, DAG phosphorylation substrate assay.
The mark [4] stands for this setting: read-out: 95% confidence intervals for IC50 values, substrate assay.

T1 sequence (P53350 whole entry): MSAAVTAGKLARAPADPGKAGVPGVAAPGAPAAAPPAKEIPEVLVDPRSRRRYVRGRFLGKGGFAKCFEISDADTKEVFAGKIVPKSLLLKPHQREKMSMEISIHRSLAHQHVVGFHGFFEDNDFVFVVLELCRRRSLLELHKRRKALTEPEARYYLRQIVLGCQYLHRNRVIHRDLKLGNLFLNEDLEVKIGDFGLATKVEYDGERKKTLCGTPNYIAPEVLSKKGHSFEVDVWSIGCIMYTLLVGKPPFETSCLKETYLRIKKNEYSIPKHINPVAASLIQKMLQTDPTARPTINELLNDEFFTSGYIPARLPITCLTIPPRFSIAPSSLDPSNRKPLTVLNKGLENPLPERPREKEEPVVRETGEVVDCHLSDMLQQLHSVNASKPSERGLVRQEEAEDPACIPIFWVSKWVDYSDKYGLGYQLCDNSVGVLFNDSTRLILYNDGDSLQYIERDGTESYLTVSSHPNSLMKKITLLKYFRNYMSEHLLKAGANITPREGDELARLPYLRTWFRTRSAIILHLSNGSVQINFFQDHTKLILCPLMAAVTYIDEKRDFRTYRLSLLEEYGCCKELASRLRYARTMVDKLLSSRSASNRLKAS

Turning to `O=C(c1ccc(F)cc1)C1CCN(CCn2c(=O)[nH]c3ccccc3c2=O)CC1` [Ketanserin], in assay [1], the “SILAC ratio, PLK1 probe-modified peptide” value turned out to be 1.0. In assay [2] (100 μM), the “activity against DGKα in the substrate assay” value is given as “negligible activity”.
For `Fc1ccc(C(=C2CCNCC2)c2ccc(F)cc2)cc1` [RF001, 4-(Bis(4-fluorophenyl)methylene) piperidine], the “SILAC ratio, PLK1 probe-modified peptide” value in assay [1] was 0.9. The IC50 in assay [2] (setting [3]) is 223 µM; in assay [2] (setting [4]) it was 120 to 414 µM.
On to `Cc1nc2sccn2c(=O)c1CCN1CCC(=C(c2ccc(F)cc2)c2ccc(F)cc2)CC1` [Ritanserin], for which the “SILAC ratio, PLK1 probe-modified peptide” value in assay [1] was 1.5. Moreover, the “blockade of recombinant DGKα activity” value in assay [2] (100 μM compound) is listed as around 80%. Besides, the “blockade of DGKα activity” value in assay [2] (100 μM, from substrate- and chemical proteomic-assays) is around 70%. Moreover, the half-inhibitory concentration (IC50) in assay [2] (setting [3]) is 25 µM; in assay [2] (setting [4]), 20 to 30 µM.

As usually defined, the IC50 is the concentration needed to halve the response being measured.
